Results as given in ChEMBL document CHEMBL1201862, “PubChem BioAssay data set” (2004).
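Following 48 hours of exposure in 96-well plates, responses at five concentrations were used to interpolate endpoints linearly. Abbreviation: GI50, concentration required for 50% inhibition of growth.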 Activity calls are given as the source filed them. Cut-off read from the data, not from the text of the source: active = GI50 up to about 1.1 µM and inactive = higher.

Columns and labels:
Experiment in all cases: growth of human tumour cells (NCI), 48 h
CCRF-CEM = tested on: CCRF-CEM
COLO 205 = tested on: COLO 205
EKVX = tested on: EKVX
HOP-92 = tested on: HOP-92
MCF7 = tested on: MCF7
MDA-MB-231 = tested on: MDA-MB-231
MDA-MB-435 = tested on: MDA-MB-435
MDA-N = tested on: MDA-N
MOLT-4 = tested on: MOLT-4
NCI-H23 = tested on: NCI-H23
OVCAR-3 = tested on: OVCAR-3
SF-295 = tested on: SF-295
SK-MEL-5 = tested on: SK-MEL-5
SK-OV-3 = tested on: SK-OV-3
SN12C = tested on: SN12C
SNB-19 = tested on: SNB-19
SW-620 = tested on: SW-620
UACC-62 = tested on: UACC-62
SK-MEL-2 = tested on: SK-MEL-2
SR = tested on: SR

Measured: GI50

COC(=O)c1cc(C)ccc1CC(Cc1ccccc1C)C(=O)OC (stereo not given)
inactive: CCRF-CEM 14 µM | COLO 205 46.2 µM | EKVX 18.7 µM | HOP-92 14.4 µM | MCF7 23.3 µM | MDA-MB-231 59.6 µM | MDA-MB-435 18.1 µM | MDA-N 28.4 µM | MOLT-4 2.56 µM | NCI-H23 40.1 µM | OVCAR-3 24.4 µM | SF-295 38.2 µM | SK-MEL-5 14.1 µM | SK-OV-3 > 100 µM | SN12C 44.9 µM | SNB-19 > 100 µM | SW-620 69 µM | UACC-62 27.5 µM

O=[N+]([O-])c1ccc2nc3c(nc2c1)-c1c2ccccc2cc2cccc-3c12
inactive: CCRF-CEM 6.12 µM | COLO 205 > 100 µM | EKVX 26.4 µM | HOP-92 14.9 µM | MCF7 4.06 µM | MDA-MB-231 18.7 µM | MDA-MB-435 27.8 µM | MDA-N 10.5 µM | MOLT-4 2.17 µM | NCI-H23 3.61 µM | OVCAR-3 12.3 µM | SF-295 19.6 µM | SK-MEL-2 27.2 µM | SK-MEL-5 31.8 µM | SK-OV-3 17.5 µM | SN12C 10.7 µM | SNB-19 11.7 µM | SW-620 4.83 µM | UACC-62 10.5 µM

O=C1NN=C(c2ccc(Cl)cc2)CC1C1C(=O)N(c2ccccc2)N=C1c1ccccc1 (stereo not given)
inactive: CCRF-CEM 26.5 µM | COLO 205 41.8 µM | EKVX 35 µM | MCF7 40.5 µM | MDA-MB-231 35.9 µM | MDA-MB-435 31.6 µM | MDA-N 34.8 µM | MOLT-4 28.1 µM | NCI-H23 23.3 µM | OVCAR-3 27.5 µM | SF-295 29.9 µM | SK-MEL-2 25.1 µM | SK-MEL-5 > 10 µM | SK-OV-3 39.5 µM | SN12C 34.4 µM | SNB-19 33.8 µM | SR 93.1 µM | SW-620 30.5 µM | UACC-62 26.8 µM

N#Cc1ccc(CSC2=C(c3ccc(Cl)cc3)S/C(=C3\SC(SCc4ccc(C#N)cc4)=C(c4ccc(Cl)cc4)S3)S2)cc1
inactive: CCRF-CEM > 100 µM | COLO 205 > 100 µM | EKVX > 100 µM | MCF7 > 100 µM | MDA-MB-231 > 100 µM | MDA-MB-435 > 100 µM | MDA-N > 100 µM | MOLT-4 > 100 µM | NCI-H23 > 100 µM | OVCAR-3 > 100 µM | SF-295 > 100 µM | SK-MEL-2 > 100 µM | SK-MEL-5 > 100 µM | SK-OV-3 > 100 µM | SN12C > 100 µM | SNB-19 > 100 µM | SR > 100 µM | SW-620 > 100 µM | UACC-62 > 100 µM

COc1cc(N(CCC#N)CCC#N)ccc1C(/N=N/c1cccc(C)c1)=N\NC(=O)c1ccc(C)cc1
inactive: CCRF-CEM 97.3 µM | COLO 205 60 µM | EKVX 87.7 µM | HOP-92 65.9 µM | MCF7 29.1 µM | MDA-MB-231 > 100 µM | MDA-MB-435 > 100 µM | MDA-N > 100 µM | MOLT-4 7.91 µM | NCI-H23 > 100 µM | OVCAR-3 > 100 µM | SF-295 > 100 µM | SK-MEL-2 > 100 µM | SK-MEL-5 > 100 µM | SK-OV-3 > 100 µM | SN12C > 100 µM | SNB-19 > 100 µM | SW-620 > 100 µM | UACC-62 37.2 µM

CC(C)C1CC(CO)(CNc2nc(N)nc(Cl)c2C=O)C1 (stereo not given)
inactive: CCRF-CEM 2.34 µM | COLO 205 12.3 µM | EKVX 4.51 µM | HOP-92 2.28 µM | MCF7 10.3 µM | MDA-MB-231 2.45 µM | MDA-MB-435 2.23 µM | MDA-N 2.85 µM | MOLT-4 2.15 µM | NCI-H23 2.22 µM | OVCAR-3 3.47 µM | SF-295 16.6 µM | SK-MEL-2 1.8 µM | SK-MEL-5 6.89 µM | SK-OV-3 6.79 µM | SN12C 3.75 µM | SNB-19 6.04 µM | SW-620 6.15 µM | UACC-62 2 µM

COc1ccc(-n2c(C)nc3ccc(NC4OCC(OC(C)=O)C(OC(C)=O)C4OC(C)=O)cc3c2=O)cc1 (stereo not given)
inactive: COLO 205 > 100 µM | EKVX > 100 µM | MCF7 > 100 µM | MDA-MB-231 > 100 µM | MDA-MB-435 > 100 µM | MDA-N > 100 µM | MOLT-4 > 100 µM | NCI-H23 > 100 µM | OVCAR-3 > 100 µM | SF-295 > 100 µM | SK-MEL-2 > 100 µM | SK-MEL-5 > 100 µM | SN12C > 100 µM | SNB-19 > 100 µM | SR > 100 µM | SW-620 > 100 µM | UACC-62 > 100 µM
